O=C(N[C@H](Cc1ccccc1)C(=O)O)OCC1c2ccccc2-c2ccccc21 gave a solubility (mole fraction) (in 2-butanone, 283.15 K) of 0.00646, a solubility (mole fraction) (in 2-butanone, 288.15 K) of 0.00728 and a solubility (mole fraction) (in 2-butanone, 293.15 K) of 0.00803. For the same compound, the solubility (mole fraction) (in 2-butanone, 298.15 K) was 0.00895, the solubility (mole fraction) (in 2-butanone, 303.15 K) was 0.00993 and the solubility (mole fraction) (in 2-butanone, 308.15 K) was 0.0112. For the same compound, the solubility (mole fraction) (in 2-butanone, 313.15 K) was 0.0133, the solubility (mole fraction) (in 2-butanone, 318.15 K) was 0.015 and the solubility (mole fraction) (in 2-butanone, 323.15 K) was 0.017. It also gave a solubility (mole fraction) (in acetone, 283.15 K) of 0.00728, a solubility (mole fraction) (in acetone, 288.15 K) of 0.00759 and a solubility (mole fraction) (in acetone, 293.15 K) of 0.00837. It also gave a solubility (mole fraction) (in acetone, 298.15 K) of 0.00931, a solubility (mole fraction) (in acetone, 303.15 K) of 0.0109 and a solubility (mole fraction) (in acetone, 308.15 K) of 0.0128. It also gave a solubility (mole fraction) (in acetone, 313.15 K) of 0.0146, a solubility (mole fraction) (in acetone, 318.15 K) of 0.0164 and a solubility (mole fraction) (in acetone, 323.15 K) of 0.0193. It also gave a solubility (mole fraction) (in acetonitrile, 283.15 K) of 0.000619, a solubility (mole fraction) (in acetonitrile, 288.15 K) of 0.00066 and a solubility (mole fraction) (in acetonitrile, 293.15 K) of 0.000723. It also gave a solubility (mole fraction) (in acetonitrile, 298.15 K) of 0.00084, a solubility (mole fraction) (in acetonitrile, 303.15 K) of 0.000952 and a solubility (mole fraction) (in acetonitrile, 308.15 K) of 0.00117. It also gave a solubility (mole fraction) (in acetonitrile, 313.15 K) of 0.00138, a solubility (mole fraction) (in acetonitrile, 318.15 K) of 0.00168 and a solubility (mole fraction) (in acetonitrile, 323.15 K) of 0.00203. The solubility (mole fraction) (in ethanol, 283.15 K) was 0.00161, the solubility (mole fraction) (in ethanol, 288.15 K) was 0.00173 and the solubility (mole fraction) (in ethanol, 293.15 K) was 0.00187. The solubility (mole fraction) (in ethanol, 298.15 K) was 0.00205, the solubility (mole fraction) (in ethanol, 303.15 K) was 0.0024 and the solubility (mole fraction) (in ethanol, 308.15 K) was 0.00278. It also gave a solubility (mole fraction) (in ethanol, 313.15 K) of 0.00324, a solubility (mole fraction) (in ethanol, 318.15 K) of 0.004 and a solubility (mole fraction) (in ethanol, 323.15 K) of 0.00515. For the same compound, the solubility (mole fraction) (in ethyl acetate, 283.15 K) was 0.00272, the solubility (mole fraction) (in ethyl acetate, 288.15 K) was 0.003 and the solubility (mole fraction) (in ethyl acetate, 293.15 K) was 0.00342. The solubility (mole fraction) (in ethyl acetate, 298.15 K) was 0.00379, the solubility (mole fraction) (in ethyl acetate, 303.15 K) was 0.00443 and the solubility (mole fraction) (in ethyl acetate, 308.15 K) was 0.00504. It also gave a solubility (mole fraction) (in ethyl acetate, 313.15 K) of 0.00571, a solubility (mole fraction) (in ethyl acetate, 318.15 K) of 0.00682 and a solubility (mole fraction) (in ethyl acetate, 323.15 K) of 0.00793. For the same compound, the solubility (mole fraction) (in isopropanol, 283.15 K) was 0.000943, the solubility (mole fraction) (in isopropanol, 288.15 K) was 0.00103 and the solubility (mole fraction) (in isopropanol, 293.15 K) was 0.00114. The solubility (mole fraction) (in isopropanol, 298.15 K) was 0.00126, the solubility (mole fraction) (in isopropanol, 303.15 K) was 0.00155 and the solubility (mole fraction) (in isopropanol, 308.15 K) was 0.00208. The solubility (mole fraction) (in isopropanol, 313.15 K) was 0.00263, the solubility (mole fraction) (in isopropanol, 318.15 K) was 0.00311 and the solubility (mole fraction) (in isopropanol, 323.15 K) was 0.00375.
